Reference: the METLIN SMRT retention time set (Domingo-Almenara et al. 2019)

Test: gradient 5% acetonitrile 3 min, to 50% in 2 min, to 85% in 15 min, held 3 min, 100 µL/min
Settings: column: Zorbax Extend-C18 2.1 x 50 mm; eluents: water / acetonitrile, 0.1% formic acid
How it was run: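 Standards, all pure, were combined into mixtures of ~100 molecules and run at 100 μL/min on a Zorbax Extend-C18 column (2.1 × 50 mm, 1.8 μm) with water and acetonitrile, each containing 0.1% formic acid. A coupled quadrupole time-of-flight mass spectrometer operated in positive and negative ionization mode. Retention time values come from computationally picked adduct peaks, each inspected manually.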

Structure (SMILES)	RP-LC retention time
CC(=O)N1c2ccc(S(=O)(=O)N3CCCCC3)cc2CC1C(=O)NCCc1ccc(Cl)cc1 (centres undefined)	924 s
COc1ccc(C2CC(=O)N(c3ccc(C)cc3C)C(=O)C2)cc1	941 s
Cc1cc(-c2ccc(C)c(S(=O)(=O)N3CCN(c4ccccn4)CC3)c2)on1	719 s
COc1ccccc1N1CCN(c2ncc(C(=O)O)c(C(C)C)n2)CC1	911 s
O=C(Cn1cnc2c(sc3nc(-c4ccccc4)ccc32)c1=O)Nc1ccc2c(c1)OCO2	974 s
Cn1cnc2ccc(-c3noc(CNS(=O)(=O)c4ccccc4)n3)cc21	739 s
Cn1c(=O)n(CCN2CCCCC2)c(=O)c2c1nc1n2CCCN1C1CCCCC1	681 s
COc1ccccc1NC(=O)C1CCN(S(C)(=O)=O)c2ccccc2O1 (centres undefined)	916 s
COc1ccc(OC)c(NC(=O)c2cc(C(C)(C)C)n3nccc3n2)c1	768 s
CC(C)(C)C(=O)NCc1cccnc1-c1ccccc1	600 s
Cc1cc(=O)n(Cc2cccc(Br)c2)c(Nc2ccc(F)c(F)c2)n1	1270 s
Cc1cc(C)n(Cc2ccc(C(=O)N3CCN(c4cc(=O)n(C(C)C)c(=O)n4C(C)C)CC3)o2)n1	772 s
CCN(C(=O)Cn1c(CNC(=O)c2ccco2)nc2ccccc21)c1ccccc1	687 s
Cc1cc2nn(CC(=O)Nc3ccc(F)c(F)c3)c(=O)n2c(Nc2ccc(F)c(C)c2)n1	1090 s
COC(=O)c1ncn2c1C(=O)N(Cc1ccccc1F)C(C)(C(=O)NC1CCCC1)C2 (centres undefined)	737 s
COc1ccc(-c2noc(Cn3ccn(-c4ccccc4OC)c(=O)c3=O)n2)cc1	623 s
O=C(Cn1cccc(-c2nc(-c3ccc(F)cc3)no2)c1=O)Nc1ccc(F)cc1F	875 s
CC1CCN(C(=O)C2=CN(c3cccc(F)c3)c3ccccc3S2(=O)=O)CC1	908 s
Cc1noc(C)c1CCNC(=O)C1CCCN(c2nc3ccccc3n(Cc3ccccc3)c2=O)C1 (centres undefined)	974 s
C=Cc1ccc(CN2CCCN(c3ncccc3-c3nc(CCC)no3)CC2)cc1	766 s
CC(C(=O)NN1CCOCC1)n1nc(-c2ccco2)ccc1=O (centres undefined)	584 s
Fc1cc(F)cc(-c2nnc(Cc3nc(-c4ccc(Br)cc4)no3)o2)c1	1150 s

Structure (SMILES)	RP-LC retention time
Cc1noc(C2CN(C(=O)Nc3ccc(F)c(Cl)c3)CC23CCOCC3)n1 (centres undefined)	783 s
COc1cc2nc(C(=O)N3CCCCC3)cc(Nc3cccc(C(F)(F)F)c3)c2cc1OC	752 s
COc1ccc(-c2noc(C3CC(=O)N(c4ccc(C)cc4)C3)n2)c(OC)c1 (centres undefined)	888 s
Cn1cc(CN2CCC(C(=O)NCC3CCN(Cc4cccc(F)c4)CC3)CC2)c2ccccc21	572 s
CC(C)c1cc(C(=O)Nc2ccc(Cl)cc2)nn1C1CCS(=O)(=O)C1 (centres undefined)	936 s
CCN1CCN(C(=O)Cc2c(C(=O)O)c(C)cn2CC)CC1	568 s
O=C(CC1=C2CCCCC2NC1=O)Nc1ccccc1 (centres undefined)	681 s
CC(C)Cc1noc(C2(F)CCN(S(=O)(=O)c3ccc(F)cc3F)CC2)n1	1150 s
Cc1ccc2c(c1)N(S(C)(=O)=O)CCC(C(=O)NC1CCCCCC1)O2 (centres undefined)	957 s
COc1cc(OC)cc(C(=O)N2CCN(c3cc(C(C)C)n4cnnc4n3)CC2)c1	576 s
O=C(Cc1nnc2c(-c3nc(C4CC4)no3)cccn12)N1CCCCC1	616 s
COc1ccc(-n2ncc3c(=O)n(Cc4nc(-c5ccc(OC(F)(F)F)cc5)no4)cnc32)cc1	1100 s
CCN1CCN(C(=O)C2CCN(c3nc4ccc(-c5ccsc5)nc4s3)CC2)CC1	666 s
COc1ccc(C(=O)N2CCC3(CC2)NC(=O)c2ccc(Cl)cc2N3)cc1	735 s
O=C(C1CCN(c2nnc(-c3ccccc3)o2)CC1)N1CCC2(CC1)OCCO2	701 s
CCc1cc(=O)n(CC(=O)Nc2ccc(Cl)c(Cl)c2)c(-n2nc(C)cc2C)n1	1060 s
O=c1c2cc(-c3ccc4c(c3)OCO4)nn2ccn1Cc1nc(-c2ccc(F)cc2)no1	1020 s
Cc1c(C(=O)N2CCC(C(=O)NC3CCN(Cc4ccccc4)CC3)CC2)sc2nc[nH]c(=O)c12	568 s
COc1cc(NC(=O)N2C[C@@H](F)C[C@H]2C(=O)N2CCc3ccccc3C2)cc(OC)c1	752 s
O=S(=O)(c1ccc(F)cc1)N1CCC2(CC1)NCCN=C2NCc1ccccc1F	692 s
COc1ccc(OC)c(NC(=O)CN2C(=O)CC(c3ccccc3)=Nc3ccccc32)c1	982 s
CN1C(=O)c2cc(C(=O)N3CCCC3)nn2CC1(C)C(=O)NCc1ccc(F)cc1 (centres undefined)	626 s
